Conditions: instrument: DT, stepped-field

Compound | collision cross section (N2) ([M+H]+) | collision cross section (N2) ([M+Na]+)
O=c1c(-c2ccc(O)cc2)coc2cc(O)cc(O)c12 [Genistein] | 163.3 Å² | 177.67 Å²
Nc1ccn([C@@H]2O[C@H](CO)[C@@H](OP(=O)(O)O)[C@H]2O)c(=O)n1 [Cytidine 3'-monophosphate] | 170.98 Å² | 174.9 Å²
O=C(CO)[C@@H](O)[C@H](O)COP(=O)(O)O [D-Xylulose 5-Phosphate] | – | 151.4 Å²
Nc1ncnc2c1ncn2[C@H]1C[C@H](O)[C@@H](CO)O1 [2'-Deoxyadenosine] | 162.73 Å² | 166.67 Å²
C=C1C2CCC(C2)C1(C)C (centres undefined) [Camphene] | 130.63 Å² | 133.01 Å²
O=C(O)c1ccc(=O)[nH]c1 [6-Hydroxynicotinate] | 136.43 Å² | –
C[C@@H]1O[C@@H](O[C@H]2C(=O)c3c(O)cc(O)cc3O[C@@H]2c2ccc(O)c(O)c2)[C@H](O)[C@H](O)[C@H]1O [Astilbin] | 205.87 Å² | 212.64 Å²
OC[C@H]1O[C@@H](O[C@H]2[C@H](O)[C@@H](O)[C@H](O[C@H]3[C@H](O)[C@@H](O)[C@H](O[C@H]4[C@H](O)[C@@H](O)[C@H](O[C@H]5[C@H](O)[C@@H](O)[C@H](O[C@H]6[C@H](O)[C@@H](O)[C@H](O)O[C@@H]6CO)O[C@@H]5CO)O[C@@H]4CO)O[C@@H]3CO)O[C@@H]2CO)[C@H](O)[C@@H](O)[C@@H]1O [Cellohexaose] | – | 283.13 Å²
Nc1ncnc2c1ncn2[C@@H]1O[C@H](COP(=O)(O)OP(=O)(O)O)[C@@H](O)[C@H]1O [Adenosine 5' Diphosphate] | 188.61 Å² | 196.92 Å²
CS(=N)(=O)CC[C@H](N)C(=O)O (stereo partly drawn) [L-Methionine sulfoximine] | 139.3 Å² | 143.1 Å²
CCCCCCCCCCCCCCCCCC(=O)OC[C@@H](O)COP(=O)([O-])OCC[N+](C)(C)C [18:0 Lyso PC] | – | 243.07 Å²
O=C[C@@H](O)[C@H](O)[C@H](O)CO [D-Arabinose] | – | 143.27 Å²
O=C1c2ccccc2C(=O)c2ccccc21 [Anthraquinone] | 141.89 Å² | –
CN(C)C(=O)Nc1ccc(Cl)c(Cl)c1 [Diuron] | 153.32 Å² | 162.7 Å²
NC(N)=NCCCC(=O)O [4-Guanidinobutanoic Acid] | 132.8 Å² | –
O=C/C=C/c1ccccc1 [Cinnamaldehyde] | 134.25 Å² | –

Compound | collision cross section (N2) ([M+H]+) | collision cross section (N2) ([M+Na]+)
CC(C)=CC(=O)SCCNC(=O)CCNC(=O)C(O)C(C)(C)COP(=O)(O)OP(=O)(O)OC[C@H]1O[C@@H](n2cnc3c(N)ncnc32)[C@H](O)[C@@H]1OP(=O)(O)O (some centres undefined) [3-Methylcrotonyl-CoA] | 180.03 Å² | –
CC(=O)Oc1ccccc1C(=O)O [Acetylsalicylic Acid] | – | 146.8 Å²
CCCCCC1OC1C/C=C\C/C=C\C/C=C\CCCC(=O)O (centres undefined) [14(15)-EET] | 182.43 Å² | 187.07 Å²
O=C(O)/C=C(/CC(=O)O)C(=O)O [Cis-Aconitic Acid] | 152.21 Å² | 146.78 Å²
CCNc1nc(NC(C)(C)C)nc(SC)n1 [Terbutryn] | 161.23 Å² | –
CCCCCCCCCCCCCCCCCCCC(=O)O [Arachidic Acid] | – | 199.97 Å²
O=C(CO)[C@@H](O)[C@H](O)[C@H](O)[C@H](O)CO [D-Sedoheptulose] | – | 150.73 Å²
Nc1ccnc(=O)[nH]1 [Cytosine] | 121.58 Å² | –
O=C(O)/C=C/c1ccccc1 [Cinnamic Acid] | 145.31 Å² | –
Cc1ccccc1C(=O)NCC(=O)O [2-Methylhippuric Acid] | – | 156.6 Å²
CC(C)C1(C)N=C(c2ncccc2C(=O)O)NC1=O (centres undefined) [Imazapyr] | 157.81 Å² | 176.07 Å²
O=C1C[C@@H](c2ccc(O)c(O)c2)Oc2cc(O)cc(O)c21 [Eriodictyol] | 170.48 Å² | 182.17 Å²
CN(C)c1nc(=O)n(C2CCCCC2)c(=O)n1C [Hexazinone] | 163.17 Å² | 179.49 Å²
OC1OC[C@@H](O)[C@H](O)[C@H]1O (stereo partly drawn) [D-(+)-Xylose] | – | 132.07 Å²
CCC(CC)Nc1c([N+](=O)[O-])cc(C)c(C)c1[N+](=O)[O-] [Pendimethalin] | 162.6 Å² | 187.77 Å²

The remaining lines, values ahead:

collision cross section (N2) ([M+H]+) | collision cross section (N2) ([M+Na]+) | Compound
146.35 Å² | 153.72 Å² | O=C(O)C1(O)C[C@@H](O)C(O)[C@H](O)C1 (some centres undefined) [Quinic Acid]
130.23 Å² | – | O=C(O)[C@@H]1C[C@@H](O)CN1 [Trans-4-Hydroxy-L-proline]
213.2 Å² | 227.9 Å² | CCCCC/C=C\C\C=C/C=C/C=C/[C@@H](SC[C@H](N)C(=O)O)[C@@H](O)CCCC(=O)O [Leukotriene E4]
– | 195.65 Å² | COC(=O)C1=CO[C@@H](O[C@@H]2O[C@H](CO)[C@@H](O)[C@H](O)[C@H]2O)[C@@H]2[C@@H](C)[C@@H](O)C[C@H]12 [Loganin]
143.47 Å² | – | N[C@@H](Cn1ccc(=O)c(O)c1)C(=O)O [L-Mimosine]
220.71 Å² | 225.41 Å² | CCCCCCCCCCCCC(=O)OCC(O)COP(=O)([O-])OCC[N+](C)(C)C (centres undefined) [LPC 13:0]
– | 167.4 Å² | OC1OC[C@@H](O[C@@H]2OC[C@@H](O)[C@H](O)[C@H]2O)[C@H](O)[C@H]1O (some centres undefined) [Xylobiose]
136.36 Å² | 142.23 Å² | N[C@@H](CCCC(=O)O)C(=O)O [L-2-Aminoadipic Acid]
– | 136.93 Å² | O=C(O)[C@H](O)[C@@H](O)CO [L-Threonic Acid]
– | 239.18 Å² | CC(=O)N[C@H]1[C@H](O[C@H]2[C@@H](O)[C@@H](CO)O[C@@H](O[C@H]3[C@H](O)[C@@H](O)C(O)O[C@@H]3CO)[C@@H]2O)O[C@H](CO)[C@@H](O)[C@@H]1O[C@@H]1O[C@H](CO)[C@H](O)[C@H](O)[C@H]1O (some centres undefined) [Lacto-N-Tetraose]
– | 146.78 Å² | O=C(O)CC(C(=O)O)C(O)C(=O)O (centres undefined) [Isocitric Acid]
– | 197.33 Å² | CC/C=C\C[C@H](O)/C=C/[C@H]1OC(O)C[C@H](O)[C@@H]1C/C=C\CCCC(=O)O (some centres undefined) [Thromboxane B3]
– | 146.68 Å² | C/C=C(\C)C(=O)NCC(=O)O [Tiglyl Glycine]
139.45 Å² | – | O=C(O)CC(=O)C(=O)O [Oxaloacetic Acid]
141.89 Å² | 149.77 Å² | O=C(O)[C@H](O)[C@@H](O)[C@H](O)[C@H](O)CO [Gluconic Acid]
– | 230.47 Å² | OC[C@H]1O[C@H](O[C@H]2[C@H](O)[C@@H](O)[C@@H](O[C@H]3[C@H](O)[C@@H](O)[C@@H](O[C@H]4[C@H](O)[C@@H](O)[C@@H](O)O[C@@H]4CO)O[C@@H]3CO)O[C@@H]2CO)[C@H](O)[C@@H](O)[C@@H]1O [Maltotetraose]

collision cross section (N2) ([M+H]+) | collision cross section (N2) ([M+Na]+) | Compound
– | 279.7 Å² | OC[C@H]1O[C@H](O[C@H]2[C@H](O)[C@@H](O)[C@@H](O[C@H]3[C@H](O)[C@@H](O)[C@@H](O[C@H]4[C@H](O)[C@@H](O)[C@@H](O[C@H]5[C@H](O)[C@@H](O)[C@@H](O[C@H]6[C@H](O)[C@@H](O)C(O)O[C@@H]6CO)O[C@@H]5CO)O[C@@H]4CO)O[C@@H]3CO)O[C@@H]2CO)[C@H](O)[C@@H](O)[C@@H]1O (some centres undefined) [Maltohexaose]
241.93 Å² | – | NC(=O)c1ccc[n+]([C@@H]2O[C@H](COP(=O)(O)OP(=O)(O)OC[C@H]3O[C@@H](n4cnc5c(N)ncnc54)[C@H](O)[C@@H]3O)[C@@H](O)[C@H]2O)c1 [Nicotinamide Adenine Dinucleotide (NAD+)]
218.73 Å² | 228.6 Å² | CCCCCCCC/C=C\CCCCCCCC(=O)OC(CC(=O)[O-])C[N+](C)(C)C (centres undefined) [Oleoylcarnitine]
– | 151.95 Å² | OC1C(O)C(O)C(O)C(O)C1O (centres undefined) [Inositol]
149.57 Å² | 151.34 Å² | N[C@@H](CS)C(=O)O [L-Cysteine]
234.1 Å² | 238.7 Å² | CCCCC/C=C\C\C=C/C=C/C=C/[C@@H](SC[C@H](N)C(=O)NCC(=O)O)[C@@H](O)CCCC(=O)O [Leukotriene D4]
130.9 Å² | 136.57 Å² | N[C@H](CO)Cc1cnc[nH]1 [L-histidinol]
125.47 Å² | – | c1cn[nH]c1 [Pyrazole]
– | 247.83 Å² | CCCCCCCCCCCCCCCC(=O)O[C@H](COC(=O)CCCCCCCCCCC)COP(=O)(O)OC[C@H](N)C(=O)O [PS(14:0/14:0)]
153.02 Å² | 149.13 Å² | O=C(O)/C=C(\CC(=O)O)C(=O)O [Trans-Aconitic Acid]
– | 145.58 Å² | O=P(O)(O)OP(=O)(O)O [Pyrophosphoric Acid]
– | 183.57 Å² | O=C[C@H](O[C@@H]1O[C@H](CO)[C@@H](O)[C@H](O)[C@H]1O)[C@@H](O)[C@H](O)[C@H](O)CO [Sophorose]
154.76 Å² | 165.05 Å² | Cc1ncc(COP(=O)(O)O)c(C=O)c1O [Pyridoxal 5'-Phosphate]
131 Å² | 143.5 Å² | O=c1[nH]c(=O)c2[nH]c(=O)[nH]c2[nH]1 [Uric Acid]
171.45 Å² | 178.52 Å² | CC(=O)Nc1ccc(S(=O)(=O)Nc2cc(C)on2)cc1 [N-Acetyl Sulfamethoxazole]
